Experimental findings from ChEMBL document CHEMBL5352480, “Discovery of potent 1,1-diarylthiogalactoside glycomimetic inhibitors of Pseudomonas aeruginosa LecA with antibiofilm properties” (Eur J Med Chem, 2023) are described below.

pKd: −log10 of the molar value.

Series [1] relates to MRC5. Briefly: Cytotoxicity against human MRC5 cells assessed as cell viability at 2.5 mM measured after 24 hrs by MTT assay. The conditions noted are these: mrc5, 24 h, 2500 µM. For orientation: Tetrazolium dyes change colour on reduction, which living cells bring about.
In series [2] the test system is Pseudomonas aeruginosa. Briefly: Antibacterial activity against Pseudomonas aeruginosa PAO1. The class given is functional.
Series [3] has as its target T1, PA-I galactophilic lectin (Pseudomonas aeruginosa (strain ATCC 15692 / PAO1 / 1C / PRS 101 / LMG12228)) (UniProt Q05097).
T1 sequence (whole entry): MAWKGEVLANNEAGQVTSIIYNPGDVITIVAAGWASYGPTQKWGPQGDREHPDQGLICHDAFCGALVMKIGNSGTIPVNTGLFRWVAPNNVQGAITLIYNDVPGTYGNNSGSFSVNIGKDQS
Briefly: Binding affinity to Pseudomonas aeruginosa LecA expressed in Escherichia coli BL21 (DE3) cells assessed as change in enthalpy by isothermal titration calorimetry. (In ITC the heat of successive injections is recorded.)

For series [4], the system named is MRC5. In words: Cytotoxicity against human MRC5 cells assessed as reduction in cell viability at 1.25 mM measured after 24 hrs by MTT assay. The class given is toxicity, cell-based. The settings on record: mrc5, 24 h, 1250 µM.
For series [5], the target named is T1, PA-I galactophilic lectin (Pseudomonas aeruginosa (strain ATCC 15692 / PAO1 / 1C / PRS 101 / LMG12228)). Briefly: Binding affinity to Pseudomonas aeruginosa LecA expressed in Escherichia coli BL21 (DE3) cells assessed as change in entropy by isothermal titration calorimetry.
Series [6] has the same target. In words: Binding affinity to Pseudomonas aeruginosa LecA expressed in Escherichia coli BL21 (DE3) cells assessed as gibbs free energy change by isothermal titration calorimetry.
Series [7] deals with Pseudomonas aeruginosa. In words: Bactericidal activity against Pseudomonas aeruginosa PAO1. The class given is functional.
Series [8] concerns MRC5. Briefly: Cytotoxicity against human MRC5 cells assessed as reduction in cell viability at upto 1.25 mM measured after 24 hrs by MTT assay. The class given is toxicity, cell-based. The conditions noted are these: mrc5, 24 h, 1250 µM.
Series [9] relates to Pseudomonas aeruginosa. In words: Antibiofilm activity against Pseudomonas aeruginosa PA01 (CIP 104116) assessed as inhibition of biofilm formation at 0.08 to 5 mM measured after 2 to 24 hrs relative to control. The class given is functional. More on the design: scale not given: the % may be the effect or the level left. The conditions noted are these: dose 0.08-5 mM, time 2-24 hrs.

Series [10] has as its system Pseudomonas aeruginosa. In words: Antibiofilm activity against Pseudomonas aeruginosa PA01 (CIP 104116) assessed as inhibition of biofilm formation measured after 2 to 24 hrs. The class given is functional, organism-based. The settings on record: dose 0.08-5 mM, time 2-24 hrs.
Series [11] addresses T2, PA-I galactophilic lectin (Pseudomonas aeruginosa (strain ATCC 15692 / PAO1 / 1C / PRS 101 / LMG12228), UniProt Q05097).
T2 sequence (Q05097 whole entry): T1 sequence (whole entry)
Briefly: Binding affinity to Pseudomonas aeruginosa LecA expressed in Escherichia coli BL21 (DE3) cells assessed as dissociation constant by isothermal titration calorimetry.

The test system of series [12] is MRC5. Briefly: Cytotoxicity against human MRC5 cells assessed as cell viability at 5 mM measured after 24 hrs by MTT assay. The conditions noted are these: mrc5, 24 h, 5000 µM.
Series [13] addresses T2, PA-I galactophilic lectin. Briefly: Binding affinity to Pseudomonas aeruginosa LecA assessed as dissociation constant by isothermal titration calorimetry.
The target of series [14] is T2, PA-I galactophilic lectin. In words: Binding affinity to Pseudomonas aeruginosa LecA.
Series [15] concerns Pseudomonas aeruginosa. Briefly: Antibiofilm activity against Pseudomonas aeruginosa PA01 (CIP 104116) assessed as inhibition of biofilm formation at 5 mM measured after 2 to 24 hrs relative to control. The class given is functional. Details: scale not given: the % may be the effect or the level left. The conditions noted are these: time 2-24 hrs.
For series [16], the system named is Pseudomonas aeruginosa. In words: Antibiofilm activity against Pseudomonas aeruginosa PA01 (CIP 104116) assessed as log reduction of biofilm formation at 5 mM measured after 2 to 24 hrs. The class given is functional. The conditions noted are these: time 2-24 hrs.

Regarding `COc1ccc(C(=O)c2cc(OC)c(OC)c(OC)c2)cc1S[C@@H]1O[C@H](CO)[C@H](O)[C@H](O)[C@H]1O`, the viability in the series with MRC5 [1] is listed as 41.1%; in the series on MRC5 [4], 61.5%; in the series with MRC5 [12], 7.1%. In addition, in the series with Pseudomonas aeruginosa [2], the MIC was over 5 mM. Further, in [3], the deltaH is -13 kcal/mol. For the same compound, the TdeltaS in series [5] is -4.85 kcal/mol. The deltaG in series [6] was -8.17 kcal/mol. For the same compound, the MBC against Pseudomonas aeruginosa [7] is over 5 mM. The Activity result in the series with MRC5 [8] was “Non-Toxic”; in the series on Pseudomonas aeruginosa [9], 100%; in the series with Pseudomonas aeruginosa [10], “Dose-Dependent Effect”. Besides, in [11], the pKd is 5.99.
Consider `Cc1cc(=O)oc2cc(S[C@@H]3O[C@H](CO)[C@H](O)[C@H](O)[C@H]3O)ccc12`, for which the pKd in [13] was 5.27.
Regarding `CC(C)(C)c1cc2c(OCc3cn(CCOCCOCCO[C@@H]4O[C@H](CO)[C@H](O)[C@H](O)[C@H]4O)nn3)c(c1)Cc1cc(C(C)(C)C)cc(c1OCc1cn(CCOCCOCCO[C@@H]3O[C@H](CO)[C@H](O)[C@H](O)[C@H]3O)nn1)Cc1cc(C(C)(C)C)cc(c1OCc1cn(CCOCCOCCO[C@@H]3O[C@H](CO)[C@H](O)[C@H](O)[C@H]3O)nn1)Cc1cc(C(C)(C)C)cc(c1OCc1cn(CCOCCOCCO[C@@H]3O[C@H](CO)[C@H](O)[C@H](O)[C@H]3O)nn1)C2`, the pKd in series [14] is 6.75.
In the case of `O=Cc1ccc(S[C@@H]2O[C@H](CO)[C@H](O)[C@H](O)[C@H]2O)cc1`, the deltaH in [3] was -9.85 kcal/mol. In addition, the TdeltaS in series [5] is -2.99 kcal/mol. Moreover, the deltaG in series [6] was -6.86 kcal/mol. The negative-log Kd (pKd) in series [11] is 5.04.
Take `OC[C@H]1O[C@@H](OCc2cn([C@@H]3[C@H](O)[C@@H](O)[C@H](c4cn([C@H]5[C@H](O)[C@@H](O)[C@H](n6cc([C@@H]7O[C@H](CO)[C@@H](n8cc(CO[C@@H]9O[C@H](CO)[C@H](O)[C@H](O)[C@H]9O)nn8)[C@H](O)[C@H]7O)nn6)O[C@@H]5CO)nn4)O[C@@H]3CO)nn2)[C@H](O)[C@@H](O)[C@H]1O`: the pKd in [13] is 7.55.
In the case of `C=C(c1ccc(S[C@@H]2O[C@H](CO)[C@H](O)[C@H](O)[C@H]2O)cc1)c1ccc2ccccc2c1`, in [3], the deltaH is -8.41 kcal/mol. The TdeltaS in series [5] is -1.53 kcal/mol. The deltaG in series [6] is -6.88 kcal/mol. Besides, in series [11], the negative-log Kd (pKd) is 5.05.
`C=C(c1ccc(OC)cc1)c1cccc(S[C@@H]2O[C@H](CO)[C@H](O)[C@H](O)[C@H]2O)c1`: the deltaH in series [3] is -11.1 kcal/mol. The TdeltaS in [5] is -4.13 kcal/mol. Also, in series [6], the deltaG was -6.96 kcal/mol. In [11], the pKd was 5.09.
The matching figures for `CC(C)c1ccc(S[C@@H]2O[C@H](CO)[C@H](O)[C@H](O)[C@H]2O)cc1`: -11.9 kcal/mol, -4.28 kcal/mol, -7.65 kcal/mol and 5.61.
In the case of `CC(C)S[C@@H]1O[C@H](CO)[C@H](O)[C@H](O)[C@H]1O`, the negative-log Kd (pKd) in series [13] was 4.49.
In the case of `COc1ccc(S[C@@H]2O[C@H](CO)[C@H](O)[C@H](O)[C@H]2O)cc1`, the deltaH in [3] is -10.1 kcal/mol. Moreover, the TdeltaS in [5] was -3.39 kcal/mol. The deltaG in [6] was -6.72 kcal/mol. For the same compound, the pKd in series [11] was 4.92.
As for `C=C(c1ccc(OC)cc1)c1ccc(S[C@@H]2O[C@H](CO)[C@H](O)[C@H](O)[C@H]2O)cc1`, the deltaH in series [3] was -11.1 kcal/mol. For the same compound, the TdeltaS in [5] was -3.59 kcal/mol. For the same compound, in series [6], the deltaG is -7.55 kcal/mol. Besides, the pKd in series [11] is 5.52.
Regarding `C=C(c1ccc(S[C@@H]2O[C@H](CO)[C@H](O)[C@H](O)[C@H]2O)cc1)c1cccc(S[C@H]2O[C@@H](CO)[C@@H](O)[C@@H](O)[C@@H]2O)c1` (single isomer, unassigned), the figures for the viability with MRC5 [1], with MRC5 [4] and in the series with MRC5 [12] were 65.1%, 91.4% and 5.2%, respectively. The Activity is recorded as 90% in the series with Pseudomonas aeruginosa [15] and “Non-Toxic” with MRC5 [8]. In the series with Pseudomonas aeruginosa [2], this compound came in with a minimal inhibitory concentration (MIC) of over 5 mM. The deltaH in series [3] is -21.6 kcal/mol. In addition, the TdeltaS in series [5] was -12.3 kcal/mol. For the same compound, in series [6], the deltaG is -9.25 kcal/mol. This compound also had an MBC in the series with Pseudomonas aeruginosa [7] of over 5 mM. Moreover, the “log(activity)” value with Pseudomonas aeruginosa [16] was 1. Also, the pKd in series [11] was 6.80.
With `C=C(c1cc(OC)c(OC)c(OC)c1)c1ccc(OC)c(S[C@@H]2O[C@H](CO)[C@H](O)[C@H](O)[C@H]2OC(C)=O)c1`, the deltaH in series [3] was -8.6 kcal/mol. Moreover, in series [5], the TdeltaS was -1.58 kcal/mol. For the same compound, in series [6], the deltaG is -7.03 kcal/mol. In addition, in [11], the pKd is 5.16.

The viability is a read-out of living cells in per cent, often relative to untreated cells. Usually MIC stands for the least concentration at which growth counts as inhibited. By MBC is commonly meant the lowest tested concentration that kills the bacteria rather than only halting them. By pKd is commonly meant the Kd on a negative log10 scale, so that one unit is a factor of ten.
